Test systems include NCI-H522; OVCAR-8; SK-MEL-2; MDA-MB-435; UO-31; NCI-H460; DU-145; NCI-H23; Hs-578T; TK-10; U-251; MOLT-4; 786-0; OVCAR-3; OVCAR-4; COLO 205; CCRF-CEM; BT-549; A549; Malme-3M.
Assay in all cases: NCI-60 cell line screen, 48 h

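These data come from cells grown in 96-well plates and exposed to compound for 48 hours at five concentrations. At the GI50, growth is halved.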 Calls of active or inactive are those of the source. Rule as the data show it: active = GI50 up to about 1.1 µM and inactive = higher.

In the case of `Fc1ccc(/C=C2\COCC3=C2NC(=S)NC3c2ccc(F)cc2)cc1` (stereo not drawn), the GI50 with NCI-H522 was 16.4 µM (inactive); in the assay with OVCAR-8, 15.2 µM (inactive); in the assay on SK-MEL-2, 15 µM (inactive); in the assay with MDA-MB-435 it was 18.8 µM (inactive); in the assay on UO-31, 17.7 µM (inactive); in the assay on NCI-H460, 19.8 µM (inactive). Moreover, the GI50 with DU-145 is 26.5 µM (inactive); in the assay on NCI-H23 it was 20.6 µM (inactive); with Hs-578T, 24.8 µM (inactive); in the assay on TK-10 it was 22.1 µM (inactive); in the assay with U-251, 20.5 µM (inactive); in the assay with MOLT-4, 20 µM (inactive). In addition, the GI50 was 18.3 µM (inactive) in the assay on 786-0; 17.8 µM (inactive) with OVCAR-3; 18.1 µM (inactive) in the assay on OVCAR-4; 20.2 µM (inactive) in the assay with COLO 205; 19 µM (inactive) with CCRF-CEM; 19 µM (inactive) in the assay on BT-549.

As for `COc1ccc(/C=C(\C(=O)OCC(C)C)c2ccc(OC)c(OC)c2)cc1OC`, the GI50 in the assay with NCI-H522, in the assay with OVCAR-8, with SK-MEL-2, with MDA-MB-435, with UO-31 and in the assay with NCI-H460 was > 100 µM (inactive) throughout. Also, the GI50 was > 100 µM (inactive) in the assay with DU-145; > 100 µM (inactive) with NCI-H23; > 100 µM (inactive) with Hs-578T; > 100 µM (inactive) with TK-10; 56.2 µM (inactive) in the assay on U-251; > 100 µM (inactive) with MOLT-4. Further, the GI50 was > 100 µM (inactive) in the assay on A549; > 100 µM (inactive) in the assay with 786-0; > 100 µM (inactive) in the assay on OVCAR-3; > 100 µM (inactive) with OVCAR-4; 38.4 µM (inactive) in the assay with COLO 205; > 100 µM (inactive) in the assay on CCRF-CEM. Moreover, the GI50 in the assay on BT-549 was > 100 µM (inactive).

As to `COc1ccc(/N=N/c2c(C)c(C#N)c(=S)n(C3OC(CO)C(O)C(O)C3O)c2-c2ccccc2)cc1` (stereo not drawn), the GI50 with SK-MEL-2 is 33 µM (inactive); in the assay on MDA-MB-435, 24.5 µM (inactive); with UO-31, 39.4 µM (inactive); in the assay on NCI-H460, 31.3 µM (inactive); in the assay on DU-145 it was 32.1 µM (inactive); in the assay with Malme-3M it was 30.6 µM (inactive). The GI50 in the assay with NCI-H23 is 28.4 µM (inactive); with Hs-578T, 21.5 µM (inactive); in the assay on TK-10 it was 39.5 µM (inactive); with U-251, 29 µM (inactive); in the assay on MOLT-4, 9.04 µM (inactive); in the assay on A549 it was 36.7 µM (inactive). Moreover, the GI50 in the assay on 786-0 is 32 µM (inactive); in the assay on OVCAR-3, 24.7 µM (inactive); in the assay on OVCAR-4 it was 31.9 µM (inactive); with COLO 205, 47.5 µM (inactive); with CCRF-CEM, 20 µM (inactive); in the assay with BT-549, 38 µM (inactive).

On to `Cc1ccc2nc(NC(=O)C(=O)C3C(=O)NC(=S)NC3=O)sc2c1`, for which the GI50 in the assay with NCI-H522 was 78 µM (inactive); in the assay with OVCAR-8, > 100 µM (inactive); in the assay on SK-MEL-2 it was > 100 µM (inactive); in the assay on MDA-MB-435 it was > 100 µM (inactive); in the assay on UO-31, 77.3 µM (inactive); with NCI-H460, > 100 µM (inactive). For the same molecule, the GI50 in the assay on Malme-3M is 55.6 µM (inactive); in the assay with NCI-H23, > 100 µM (inactive); in the assay with Hs-578T, > 100 µM (inactive); in the assay on TK-10 it was > 100 µM (inactive); in the assay with U-251, > 100 µM (inactive); in the assay with MOLT-4 it was > 100 µM (inactive). Further, the GI50 in the assay on A549, with 786-0, in the assay with OVCAR-3, in the assay with OVCAR-4, in the assay with CCRF-CEM and with BT-549 was > 100 µM (inactive) each time.

Turning to `Cc1cc2ccccc2n2c1nc1ccccc12`, the GI50 with OVCAR-8, in the assay with MDA-MB-435, in the assay with UO-31, with NCI-H460, in the assay with DU-145 and in the assay on Malme-3M was > 100 µM (inactive) throughout. Further, the GI50 in the assay with NCI-H23, in the assay on Hs-578T, with TK-10, in the assay on U-251, in the assay with MOLT-4 and in the assay with A549 was > 100 µM (inactive) in each case. Further, the GI50 in the assay on 786-0, with OVCAR-3, in the assay with COLO 205, in the assay on CCRF-CEM and in the assay on BT-549 was > 100 µM (inactive) in each case.

Regarding `CC(C)(C)c1cc2c(O)c(c1)C(c1ccccc1)c1cc(C(C)(C)C)cc(c1O)Cc1cc(C(C)(C)C)cc(c1O)C(c1ccccc1)c1cc(C(C)(C)C)cc(c1O)C2` (stereo not drawn), the GI50 in the assay on NCI-H522, in the assay on OVCAR-8, with SK-MEL-2, with MDA-MB-435, in the assay with UO-31 and in the assay on NCI-H460 was > 100 µM (inactive) each time. Further, the GI50 with DU-145, in the assay with NCI-H23, in the assay with Hs-578T, in the assay with TK-10, in the assay on U-251 and in the assay with MOLT-4 was > 100 µM (inactive) each time. The GI50 is > 100 µM (inactive) in the assay on A549; > 100 µM (inactive) in the assay with 786-0; > 100 µM (inactive) in the assay with OVCAR-3; > 100 µM (inactive) in the assay with OVCAR-4; > 100 µM (inactive) with COLO 205; 44.9 µM (inactive) in the assay with CCRF-CEM. Moreover, the GI50 with BT-549 is > 100 µM (inactive).

Take `CC12CC(C#N)(C#N)C(C#N)(CO1)C(=N)O2` (stereo not drawn): the GI50 was > 100 µM (inactive) in the assay on OVCAR-8; > 100 µM (inactive) in the assay on SK-MEL-2; > 100 µM (inactive) in the assay on MDA-MB-435; > 100 µM (inactive) with UO-31; 63.7 µM (inactive) with NCI-H460; > 100 µM (inactive) in the assay on DU-145. Moreover, the GI50 was 24.2 µM (inactive) in the assay on Malme-3M; > 100 µM (inactive) in the assay with NCI-H23; 27.7 µM (inactive) with Hs-578T; > 100 µM (inactive) in the assay with TK-10; > 100 µM (inactive) in the assay on U-251; 54.3 µM (inactive) in the assay on MOLT-4. For the same molecule, the GI50 was > 100 µM (inactive) with A549; > 100 µM (inactive) with 786-0; > 100 µM (inactive) in the assay with OVCAR-3; > 100 µM (inactive) with OVCAR-4; 37.8 µM (inactive) in the assay with COLO 205; 26.9 µM (inactive) in the assay on CCRF-CEM. For the same molecule, the GI50 in the assay on BT-549 is > 100 µM (inactive).

On to `COc1cc(COC(=O)N2CSCC2C(=O)O)c([N+](=O)[O-])cc1OC` (stereo not drawn), for which the GI50 with OVCAR-8, in the assay on MDA-MB-435, in the assay on UO-31, with NCI-H460, in the assay on DU-145 and in the assay with Malme-3M was > 100 µM (inactive) throughout. In addition, the GI50 with NCI-H23, in the assay with Hs-578T, with U-251, with MOLT-4, with A549 and in the assay with 786-0 was > 100 µM (inactive) throughout. The GI50 in the assay with OVCAR-3, in the assay on CCRF-CEM and in the assay on BT-549 was > 100 µM (inactive) throughout.

For `Cc1cc2nc(N3C(=O)/C(=C/c4cccc([N+](=O)[O-])c4)N=C3c3ccccc3)sc2cc1C`, the GI50 in the assay with OVCAR-8 was 21.4 µM (inactive); with SK-MEL-2, 23.1 µM (inactive); with MDA-MB-435 it was 12.8 µM (inactive); with UO-31, 32.5 µM (inactive); in the assay with NCI-H460 it was 29.2 µM (inactive); in the assay with DU-145, 42.8 µM (inactive). Also, the GI50 was 24.5 µM (inactive) with Hs-578T; 71.1 µM (inactive) with TK-10; 22.8 µM (inactive) in the assay on U-251; 12.9 µM (inactive) in the assay on MOLT-4; 36.1 µM (inactive) in the assay on A549; 40.3 µM (inactive) with 786-0. Moreover, the GI50 in the assay on OVCAR-3 was 32 µM (inactive); with OVCAR-4 it was 25.8 µM (inactive); in the assay with COLO 205, 36.3 µM (inactive); in the assay with CCRF-CEM, 9.95 µM (inactive); in the assay on BT-549 it was 32.4 µM (inactive).

Take `O=C(Oc1ccccc1)N1c2ccccc2[C@@]23O[C@]24CCC[C@H]3C#C/C=C\C#C[C@H]14`: the GI50 in the assay with OVCAR-8 is 11.9 µM (inactive); in the assay with SK-MEL-2 it was 11.8 µM (inactive); in the assay with MDA-MB-435 it was 16.1 µM (inactive); in the assay on UO-31 it was 13.7 µM (inactive); in the assay on NCI-H460 it was < 0.01 µM (active); in the assay with DU-145, 1.05 µM (active). The GI50 in the assay with Malme-3M is 10.4 µM (inactive); in the assay on NCI-H23, 11.1 µM (inactive); in the assay with Hs-578T, 16.6 µM (inactive); in the assay on TK-10, 19.9 µM (inactive); in the assay with U-251 it was 16.7 µM (inactive); with MOLT-4, 0.706 µM (active). The GI50 in the assay on A549 is 0.0942 µM (active); in the assay with 786-0, 10.5 µM (inactive); in the assay with OVCAR-3, 13.3 µM (inactive); with OVCAR-4, 6.85 µM (inactive); in the assay on COLO 205, 14.8 µM (inactive); with CCRF-CEM it was 15.7 µM (inactive). Also, in the assay with BT-549, the GI50 was 12.9 µM (inactive).

Turning to `CNC(=O)c1nn[nH]c1Sc1c([N+](=O)[O-])ncn1C`, the GI50 with NCI-H522, in the assay with OVCAR-8, in the assay with SK-MEL-2, with MDA-MB-435, with UO-31 and with NCI-H460 was > 100 µM (inactive) each time. Moreover, the GI50 in the assay with DU-145, in the assay with NCI-H23, in the assay on Hs-578T, in the assay with TK-10, in the assay with U-251 and with MOLT-4 was > 100 µM (inactive) throughout. Besides, the GI50 in the assay with A549, in the assay on 786-0, in the assay on OVCAR-3, in the assay with OVCAR-4, with COLO 205 and in the assay on CCRF-CEM was > 100 µM (inactive) each time. For the same molecule, in the assay with BT-549, the GI50 was > 100 µM (inactive).

For the origin of these results see ChEMBL document CHEMBL1201862, “PubChem BioAssay data set” (2004).
